Assay results reported in patent publication US6384236B1, “N-(aroyl)glycine hydroxamic acid derivatives and related compounds” (Pfizer Inc, priority 1995, dated 2002).

COc1ccc(C(=O)NCC(=O)O)cc1OC1CCCC1 [Example 17]
melting point: 156 to 168 °C
